Measurements reported in patent US9167816B2, “Antimicrobial composition for inhibiting microbial organisms and the method thereof” (National Taiwan University, priority 2013, dated 2015).
No end group written: not given here.

Key:
A. tumefaciens C58C^1 = type: cell-based, Agrobacterium tumefaciens
Protocol: (§1) (A) Bacterial growth inhibited by LsGRP1-derived peptides. The bacterial suspension with an OD600 of 0.15 was treated with 2.5 mg/ml peptide solution for 90 min, and the CFUs in each peptide sample were measured at 20-24 h post treatment by serial-dilution plating Inhibition of bacterial growth (%)=[(CFUs in water treatment−CFUs in peptide treatment)/CFUs in water treatment]×100%. (B) Spore germination of plant fungal pathogens inhibited by LsGRP1-derived peptides. Fungal spores with a concentration of 1×10^5 spores/ml were treated with 2.5 mg/ml peptide for 16-20 h before the observation of spore germination under light microscope. Inhibition of fungal spore germination (%)=[(Number of spores germinating in water−Number of spores germinating in peptide solution)/Number of spores germinating in water]×100%.
(§2) The bacterial strains used in this invention included Agrobacterium tumefaciens C58C^1 (Van Larebeke et al., 1974), Bacillus subtilis 28-4, Escherichia coli DH5α (Invitrogen), Dickeya chrysanthemi TA1, Pseudomonas syringae pv. syringae 61 (Huang et al., 1988), and Xanthomonas campestris XCP3. […]
(§3) The antibacterial and antifungal activities of these peptides were determined by measuring the inhibition rate of bacterial growth and fungal spore germination. […] After incubation for 20-24 h, the colony-forming units (CFUs) in each peptide-treated sample were quantified. […]

B. subtilis 28-4 = type: cell-based, Bacillus subtilis; settings: Inhibition of bacterial growth (OD600 = 0.15)
Protocol: as §1, §2, §3

E. coli DH5α = type: cell-based, Escherichia coli; settings: Inhibition of bacterial growth (OD600 = 0.15)
Protocol: as §1, §2, §3

D. chrysanthemi TA1 = type: cell-based, Dickeya chrysanthemi; settings: 2500 μg/ml peptide, 90 min, CFUs at 20-24 h
Protocol: as §1, §2, §3

[1] = test system: P. syringae pv. syringae 61; type: cell-based, Pseudomonas syringae pv. syringae; settings: Inhibition of bacterial growth (OD600 = 0.15)
Protocol: as §1, §2, §3

X. campestris XCP3 = type: cell-based, Xanthomonas campestris
Protocol: as §1, §2, §3

[2] = test system: all assayed bacterial species (six bacterial species); type: cell-based
Protocol: as §1, §2, §3

A. brassicicola Ac1 = type: cell-based, Alternaria brassicicola; settings: Inhibition of fungal spore germination at 5 × 10^4 spores/ml
Protocol: as §1
(§4) The fungi used in this study included Alternaria brassicicola Ac1, Botrytis cinerea B-134, Botrytis elliptica B061, Colletotrichum acutatum HL1, and Colletotrichum gleosporioides MT1. […]
as §3

B. cinerea B-134 = type: cell-based, Botrytis cinerea
Protocol: as §1, §4, §3

B. elliptica B061 = type: cell-based, Botrytis elliptica; settings: Inhibition of fungal spore germination at 5 × 10^4 spores/ml
Protocol: as §1, with “Fungal spores with a concentration of 1×10^5 spores/ml were treated with 2.5 mg/ml peptide for 16-20 h before the observation of spore germination under light microscope.” left out
as §4, §3

C. acutatum HL1 = type: cell-based, Colletotrichum acutatum; settings: Inhibition of fungal spore germination at 5 × 10^4 spores/ml
Protocol: as §1, with “Fungal spores with a concentration of 1×10^5 spores/ml were treated with 2.5 mg/ml peptide for 16-20 h before the observation of spore germination under light microscope.” left out
as §4, §3

C. gleosporioides MT1 = type: cell-based, Colletotrichum gleosporioides; settings: 2.5 mg/ml peptide, 16-20 h, 1×10^5 spores/ml
Protocol: as §1, §4, §3

assayed fungal species = test: Growth inhibition assay, fungal spore germination, statements on the assayed fungal species; type: cell-based
Protocol: as §1, §4, §3

[3] = test system: assayed microbes (bacterial and fungal species); type: cell-based
Protocol: The antibacterial and antifungal activities of these peptides were determined by measuring the inhibition rate of bacterial growth and fungal spore germination. Bacterial suspensions with an OD600 at 0.15 were treated with peptide solution for 90 min, then serially diluted and plated on LB media. After incubation for 20-24 h, the colony-forming units (CFUs) in each peptide-treated sample were quantified. The inhibition of bacterial growth (%)=[(CFUs in water treatment−CFUs in peptide treatment)/CFUs in water treatment]×100%. On the other hand, fungal spore suspensions of 1×10^5 spores/ml were treated with peptide solutions for 16-20 h, and then the spore germinations were examined under microscope. The germ tube greater than two times of spore length was considered germinated Inhibition of fungal spore germination (%)=[(Number of the spores germinating in water−Number of the spores germinating in peptide solution)/Number of the spores germinating in water]×100%. Sterile deionized water replaced the peptide solution as a control treatment. All assays were performed in triplicate. Based on the data, the concentrations of peptide for 50% growth inhibition (IC50) of each microbe were determined.
According to the IC50 values of LsGRP1^C on different bacterial and fungal species, the antimicrobial potency of LsGRP1^C was verified.

[4] = test system: spores and hyphae of A. brassicicola Ac1, B. cinerea B-134, B. elliptica B061 and C. acutatum HL1; test: Light microscopy of treated fungal spores and hyphae; type: cell-based; settings: 50 μg/ml; spores 2 h, hyphae 16 h
[5] = test system: spores and hyphae of A. brassicicola Ac1, B. cinerea B-134, B. elliptica B061 and C. acutatum HL1; test: DAPI staining of fungal spores and hyphae (chromatin condensation); type: cell-based; settings: 50 μg/ml; spores 2 h, hyphae 16 h
Protocol: (§5) The fungal spores (A) and hyphae (B) were treated with 50 μg/ml LsGRP1^C for 2 h and 16 h, respectively. Then membrane permeability, chromatin condensation and reactive oxygen species accumulation of treated spores and hyphae were assayed by staining with SYTOX Green, DAPI and H2DCFDA, respectively. Sterile deionized water was used instead of LsGRP1^C as a control. Bar=20 μm (A) or 50 μm (B).
Fungal spore and hyphae were treated with 50 μg/ml peptide solution for 2 h and 16 h, respectively. Then the fungal cells were stained with 4′,6′-diamidino-2-phenylindole (DAPI) at a final concentration of 1 μg/ml in the dark for 10 min before observation under Leica DMIL florescent microscope equipped with a Leica A filter set (BP340-380 nm, DM 400 nm, LP425 nm). Sterile deionized water was used instead of the peptide solution as a control.

[6] = test system: A. brassicicola Ac1, B. cinerea B-134, B. elliptica B061 and C. acutatum HL1; test: H2DCFDA staining (reactive oxygen species accumulation), germinating spores; type: cell-based; settings: 50 μg/ml
Protocol: as §5
(§6) Fungal spore and hyphae were treated with 50 μg/ml peptide solution for 2 h and 16 h, respectively. Then the fungal cells were stained with 10 μM 2′,7′-dichlorodihydrofluorescein diacetate (H2DCFDA) in the dark for 60 min before observation under Leica DMIL florescent microscope equipped with a Chroma 41012 filter set. Sterile deionized water was used instead of peptide solution as a control.

B. elliptica = test: H2DCFDA staining (reactive oxygen species accumulation), non-germinating spores; type: cell-based, Botrytis elliptica; settings: 50 μg/ml, 2 h
Protocol: as §5, §6

A. brassicicola = test: Disease suppression assay, cabbage black spot; type: in vivo, Alternaria brassicicola on cabbage leaves; settings: 7 days after inoculation
Protocol: (§7) The synthetic LsGRP1^C solutions of 2.5, 0.25 or 0.025 mg/ml were used. LsGRP1^C solution was dropped onto the surface of cabbage leaves. Meanwhile 5 μl spore suspension of A. brassicicola (2×10^5 conidia/ml), a fungal pathogen of cabbage black spot, was mixed with LsGRP1^C solution. In addition, fungal spore suspension was deposited before or after LsGRP1^C application. On the other hand, synthetic LsGRP1^C solution was dropped onto strawberry flowers, and then mixed with spore suspension of B. cinerea (2×10^5 conidia/ml). Similarly, synthetic LsGRP1^C solution was dropped onto tomato leaves, and then mixed with bacterial suspension of P. syringae (10^7 CFU/ml). Sterile water was used instead of LsGRP1^C solution as a control. Lesion development was examined visually.
Fungal inoculation was two days (−2) or one day (−1) before treatment besides at same time of the treatment. Fungal inoculation was also performed two day (2) or one day (1) after treatment.

B. cinerea = test: Disease suppression assay, gray mold; type: in vivo, Botrytis cinerea on strawberry and orchid flowers; settings: different concentrations
Protocol: as §7
Synthetic LsGRP1^C solution (1 μl each) was dropped onto strawberry flowers, then mixed with 1 μl spore suspension of B. cinerea. […] LsGRP1^C solution (5 μl each) was dropped onto orchid flowers, then mixed with 5 μl spore suspension of B. cinerea.

P. syringae = test: Disease suppression assay, bacterial leaf spot in tomato; type: in vivo, Pseudomonas syringae on tomato leaves; settings: 6 days after inoculation
Protocol: as §7
LsGRP1^C solution (10 μl each) was dropped onto wounded tissues of tomato leaves, mixed with 10 μl bacterial suspension (10^7 CFU/ml) of pathogenic P. syringae, and then lesion development was examined 6 days after bacterial inoculation.

[7] = 2500 μg/ml peptide, 90 min, CFUs at 20-24 h
[8] = Inhibition of bacterial growth (OD600 = 0.15)

## GRELAEETKENTEKRATEAGVADQKY [LsGRP1^N]
A. tumefaciens C58C^1; [7]
  Inhibition of bacterial growth: over 98.5%
A. tumefaciens C58C^1; [8]
  IC50: 71.79 µg/mL
B. subtilis 28-4
  IC50: 23.32 µg/mL
E. coli DH5α
  IC50: 9.67 µg/mL
D. chrysanthemi TA1
  Inhibition of bacterial growth: over 98.5%
[1]
  IC50: 20.63 µg/mL
X. campestris XCP3; [7]
  Inhibition of bacterial growth: 69.6%
X. campestris XCP3; [8]
  IC50: 32.19 µg/mL
[2]; 2500 μg/ml, 90 min, CFUs at 20-24 h, all six species
  Inhibition of bacterial growth on all assayed bacterial species: more than 99.5%
[2]; summary bound of Table 1
  IC50 on all assayed bacterial species except A. tumefaciens C58C^1: lower than 32.19 μg/ml
A. brassicicola Ac1
  IC50: 54.80 µg/mL
B. cinerea B-134; 2.5 mg/ml peptide, 16-20 h, 1×10^5 spores/ml
  Inhibition of fungal spore germination: not affected
B. cinerea B-134; Inhibition of fungal spore germination at 5 × 10^4 spores/ml
  IC50: 58.26 µg/mL
B. elliptica B061
  IC50: 86.13 µg/mL
C. acutatum HL1
  IC50: 17.39 µg/mL
C. gleosporioides MT1
  Inhibition of fungal spore germination: not affected
Assayed fungal species; 2.5 mg/ml peptide, 16-20 h, with the exception of B. elliptica B061
  Inhibition of fungal spore germination, fungi other than B. elliptica B061: did not inhibit spore germination
Assayed fungal species; summary bound of Table 1
  IC50 on the assayed fungal species except B. elliptica: below 58.26 μg/ml
[3]
  IC50 on all assayed microbes: below 86.13 μg/ml
[4]
  morphology of spores and hyphae under light microscope: abnormal blebbing and shrinkage
[5]
  DAPI staining, nuclear chromatin condensation: nuclear chromatin condensation
[6]
  ROS accumulation (H2DCFDA) in germinating spores: visualized
B. elliptica
  ROS accumulation (H2DCFDA) in non-germinating spores: present
A. brassicicola; 0.025 mg/ml, fungal inoculation 2 days before treatment
  suppression of lesion development of cabbage black spot: did not occur
A. brassicicola; 0.25 mg/ml, treatment at same time or 1-2 day before/after inoculation
  lesion development of cabbage black spot: could be inhibited
B. cinerea; orchid flowers, 9 days after inoculation
  lesion development of orchid gray mold: could be suppressed
B. cinerea; strawberry flowers, 3 days after inoculation
  lesion development of strawberry gray mold: could be suppressed
P. syringae; 0.025 mg/ml
  lesion development of bacterial leaf spot in tomato: could inhibit lesion development
P. syringae; 0.25 mg/ml
  lesion development of bacterial leaf spot in tomato: could inhibit lesion development
